Measurements: US9546362B2 (priority 2011, dated 2017)
Like-named read-outs stand apart in the source and are kept apart here.

Legend:
[1] = target: T1, CsHCS2 (Cannabis sativa, UniProt A0A7J6I5X8)
Procedure: The reactions were incubated for 10 min at 40° C., terminated with 2 μL of 1 N HCl and stored on ice until analysis.
The reaction mixtures were diluted 1:100 with water and subsequently separated using a Waters Acquity UPLC system fitted with an Acquity UPLC BEH C18 column (1.7 μm particle size, 2.1×50 mm column), and analyzed by MS/MS using a Micromass Quattro Ultima triple-quadrupole mass spectrometer. The solvent system used was buffer A: 5 mM TEA and 3 mM acetic acid in water, and buffer B: 5 mM TEA and 3 mM acetic acid in 95:5 methanol:water. The mass spectrometer settings were: ESI positive mode, collision energy 27 V, cone 135 V, scanning for 866>359 transitions.

[2] = target: T1, CsHCS2; assay: Kinetic properties, separate experiment (Table 5); type: biochemical
[3] = target: T2, CsHCS1 (Cannabis sativa, UniProt H9A1V3, DEL715-715); assay: biochemical
[4] = target: T2, CsHCS1; assay: Hexanoyl-CoA synthetase activity (LC-MS/MS); type: biochemical; design: His8 (pHIS8/GW vector) (N); made in house; host or cells: E. coli Rosetta 2
[5] = target: T2, CsHCS1; settings: CsHCS1, Table 5
[6] = target: T1, CsHCS2; assay: Carboxylic acid substrate range, luciferin/luciferase measurement of unconsumed ATP; type: biochemical; settings: CsHCS2, 500 μM carboxylic acid, 50 μM ATP, 3 h at 29° C., FIG. 3B
Procedure: (§1) To test the range of carboxylic acids that CsHCS1 and CsHCS2 can activate, enzyme assays were performed with a broad range of carboxylic acids and limiting ATP. The assay conditions used were similar to Schneider K et al. (2005). A new type of peroxisomal acyl-coenzyme A synthetase from Arabidopsis thaliana has the catalytic capacity to activate biosynthetic precursors of jasmonic acid. The Journal of Biological Chemistry, 280:13962-72. […] All carboxylic acid substrates were dissolved in 2% v/v Triton™ X-100, leading to a final concentration 0.05% Triton X-100 in the assay. After reacting for 3 h at 29° C., 10 μL aliquots of the reactions were transferred to 96-well plates for a luciferin/luciferase based measurement of unconsumed ATP. The plates were analyzed with a 1420 Multilabel counter (PerkinElmer). To each well, 90 μL of a solution containing 100 mM Tris pH 7.8, 1 mM MgCl2, 2.3 μg luciferin, and 0.5 μg of luciferase was injected, and after shaking for 2 seconds the luminescence was measured for 15 seconds without a filter in place. Lower readings, compared to the reactions with no carboxylic acid substrate, indicate a higher amount of enzymatic activity and therefore substrate utilization. The results are shown in FIG. 3, wherein error bars represent the percent error of the ratio, n=3.

[7] = target: T2, CsHCS1; assay: as above; type: biochemical; design: His8 (pHIS8/GW vector) (N); made in house; host or cells: E. coli Rosetta 2; settings: CsHCS1, 500 μM carboxylic acid, 50 μM ATP, 3 h at 29° C., FIG. 3A
Procedure: as §1

[8] = tested on: CCCCCC(=O)O; assay: purified protein, by the assay type; type: biochemical, Cannabis sativa; settings: other: CsHCS1, substrate hexanoate; pH 9.0; 40.0 °C
[9] = tested on: CC(C)(COP(=O)(O)OP(=O)(O)OC[C@H]1O[C@@H](n2cnc3c(N)ncnc32)[C@H](O)[C@@H]1OP(=O)(O)O)[C@@H](O)C(=O)NCCC(=O)NCCS; assay: purified protein, by the assay type
[10] = tested on: CCCCCC(=O)O; assay: purified protein, by the assay type; settings: other: CsHCS1, Table 5
[11] = tested on: CCCCCCCCCC(=O)O; assay: purified protein, by the assay type; settings: other: CsHCS1, Table 5
[12] = tested on: olivetolic acid synthesis; assay: Coupled enzymatic assay for olivetolic acid synthesis (CsHCS2, MCS, olivetol synthase/PKS, OAS); type: biochemical, Cannabis sativa; settings: 0.3 μg CsHCS2, 4 mM hexanoate, room temperature, 16 h, FIG. 4
Procedure: Eluted compounds were detected by absorbance at 263 nm and identified both by having the same retention times as isolated standards, and by their mass using a single quadrapole mass detector. […] HTAL=hexanoyltriacetic lactone, PDAL=pentyldiacetic lactone, OA=olivetolic acid, OL=olivetol.
The reaction was incubated at room temperature for 16 h, acidified and extracted in ethyl acetate. The polar fraction was recovered, evaporated to dryness and resuspended in 50 μL of methanol. An aliquot (5 μL) was analyzed by LCMS, and products were identified by their retention times and masses (see FIG. 4).

T1 sequence (A0A7J6I5X8 entry or part of it): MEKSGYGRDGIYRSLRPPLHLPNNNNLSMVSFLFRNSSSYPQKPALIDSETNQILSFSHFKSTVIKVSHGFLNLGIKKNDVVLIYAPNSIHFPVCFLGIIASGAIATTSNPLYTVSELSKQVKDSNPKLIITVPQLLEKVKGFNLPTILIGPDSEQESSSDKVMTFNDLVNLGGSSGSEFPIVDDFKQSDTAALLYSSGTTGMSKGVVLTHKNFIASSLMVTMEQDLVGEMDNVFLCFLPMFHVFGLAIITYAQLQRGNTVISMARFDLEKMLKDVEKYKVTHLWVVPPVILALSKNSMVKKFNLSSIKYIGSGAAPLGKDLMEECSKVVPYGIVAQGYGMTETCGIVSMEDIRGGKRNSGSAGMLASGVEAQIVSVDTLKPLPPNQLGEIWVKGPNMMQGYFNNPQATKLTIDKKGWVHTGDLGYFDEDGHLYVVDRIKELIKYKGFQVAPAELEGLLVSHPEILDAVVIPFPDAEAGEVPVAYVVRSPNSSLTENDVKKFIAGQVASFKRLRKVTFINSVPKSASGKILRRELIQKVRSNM

[Ca+2] [Ca^2+]
activity with divalent cation [1]: to a lesser extent

CC(C)(COP(=O)(O)OP(=O)(O)OC[C@H]1O[C@@H](n2cnc3c(N)ncnc32)[C@H](O)[C@@H]1OP(=O)(O)O)[C@@H](O)C(=O)NCCC(=O)NCCS [CoA, coenzyme A]
inhibition of CsHCS2 [2]: did not inhibit | Ki [3]: 5100 ± 1800 µM

[Co+2] [Co^2+]
activity with divalent cation [1]: highest

[Mg+2] [Mg^2+]
activity with divalent cation [1]: high | use of divalent cation ([4]; CsHCS1, range of divalent cations tested): optimally used

[Mn+2] [Mn^2+]
activity with divalent cation [1]: high

CCCC(=O)O [butanoate]
Km ([2]; read-out: Km): > 10 mM | Km [5]: > 10 mM

O=C(O)/C=C/c1ccccc1 [cinnamate]
utilization as substrate [6]: able to utilize

CCCCCCCCCC(=O)O [decanoate]
Ki [2]: 121 ± 47.9 µM | Km ([2]; CsHCS2, Table 5): 0.0161 ± 0.0058 mM

CCCCCCCC(=O)O [octanoate]
utilization as substrate [7]: utilize

O=C(O)/C=C/c1ccc(O)cc1 [p-coumarate]
utilization as substrate [6]: to a lesser extent

CCCCC(=O)O [valerate]
utilization as substrate [7]: to a lesser extent

CsHCS1 (Cannabis sativa; DEL715-715)
Km [8]: 6.1 ± 1.0 mM | Vmax [8]: 15.6±1.7 pKat | kcat [8]: 4.5 s⁻¹ | Km ([9]; other: CsHCS1, Table 5): 0.26 ± 0.05 μM μM | Km [10]: 3.7 ± 0.7 mM mM | Km [11]: 1.7 ± 0.2 mM mM

CsHCS2 (Cannabis sativa)
Km ([9]; other: CsHCS2, Table 5): 0.16 ± 0.01 μM μM

CsHCS2: Cannabis sativa hexanoyl-CoA synthetase 2, alkanoyl-CoA synthetase, SEQ ID NO: 4
supply of hexanoyl-CoA for olivetolic acid synthesis [12]: capable of providing sufficient hexanoyl-CoA substrate for the synthesis of olivetolic acid | pH optimum [1]: 9 | temperature optimum [1]: 40 °C

B1: CsHCS1: Cannabis sativa hexanoyl-CoA synthetase 1, alkanoyl-CoA synthetase, SEQ ID NO: 2 (protein, listed as Cannabis sativa)
chain: MGKNYKSLDSVVASDFIALGITSEVAETLHGRLAEIVCNYGAATPQTWINIANHILSPDLPFSLHQMLFYGCYKDFGPAPPAWIPDPEKVKSTNLGALLEKRGKEFLGVKYKDPISSFSHFQEFSVRNPEVYWRTVLMDEMKISFSKDPECILRRDDINNPGGSEWLPGGYLNSAKNCLNVNSNKKLNDTMIVWRDEGNDDLPLNKLTLDQLRKRVWLVGYALEEMGLEKGCAIAIDMPMHVDAVVIYLAIVLAGYVVVSIADSFSAPEISTRLRLSKAKAIFTQDHIIRGKKRIPLYSRVVEAKSPMAIVIPCSGSNIGAELRDGDISWDYFLERAKEFKNCEFTAREQPVDAYTNILFSSGTTGEPKAIPWTQATPLKAAADGWSHLDIRKGDVIVWPTNLGWMMGPWLVYASLLNGASIALYNGSPLVSGFAKFVQDAKVTMLGVVPSIVRSWKSTNCVSGYDWSTIRCFSSSGEASNVDEYLWLMGRANYKPVIEMCGGTEIGGAFSAGSFLQAQSLSSFSSQCMGCTLYILDKNGYPMPKNKPGIGELALGPVMFGASKTLLNGNHHDVYFKGMPTLNGEVLRRHGDIFELTSNGYYHAHGRADDTMNIGGIKISSIEIERVCNEVDDRVFETTAIGVPPLGGGPEQLVIFFVLKDSNDTTIDLNQLRLSFNLGLQKKLNPLFKVTRVVPLSSLPRTATNKIMRRVLRQFSHFE
pH optimum ([4]; enzyme CsHCS1): 9 | temperature optimum ([4]; enzyme CsHCS1): 40 °C
